Measured values: US9963442B2, “Pyridones as herbicides” (E I DU PONT DE NEMOURS AND COMPANY, priority 2014, dated 2018)

Experiments:
Format in all cases: in vivo
Details in all cases: scale 0 to 100, 0 is no effect, 100 is complete control
[1] = test system: Italian ryegrass (Lolium multiflorum); experiment: Test C preemergence
Excerpt: (§1) Seeds of plant species selected from blackgrass (Alopecurus myosuroides), Italian ryegrass (Lolium multiflorum), winter wheat (Triticum aestivum), galium (catchweed bedstraw, Galium aparine), corn (Zea mays), large (Lg) crabgrass (Digitaria sanguinalis), giant foxtail (Setaria faberii), johnsongrass (Sorghum halepense), lambsquarters (Chenopodium album), morningglory (Ipomoea coccinea), yellow nutsedge (Cyperus esculentus), pigweed (Amaranthus retroflexus), ragweed (common ragweed, Ambrosia elatior), soybean (Glycine max), barnyardgrass (Echinochloa crus-galli), oilseed rape (Brassica napus), waterhemp (common waterhemp, Amaranthus rudis), and velvetleaf (Abutilon theophrasti) were planted into a blend of loam soil and sand and treated preemergence with test chemicals formulated in a non-phytotoxic solvent mixture which included a surfactant. At the same time, plants selected from these crop and weed species and also chickweed (common chickweed, Stellaria media), kochia (Kochia scoparia), and wild oat (Avena fatua), were planted in pots containing Sunshine Redi-Earth® planting medium comprising spaghnum peat moss, vermiculite, starter nutrients and dolomitic limestone and treated with postemergence applications of test chemicals formulated in the same manner. Plants ranged in height from 2 to 18 cm (1- to 4-leaf stage) for postemergence treatments. Treated plants and controls were maintained in a greenhouse for 13 to 15 days, after which time all species were compared to controls and visually evaluated. Plant response ratings, summarized in Table C, are based on a scale of 0 to 100 where 0 is no effect and 100 is complete control. A dash (-) response means no test result.

[2] = test system: barnyardgrass (Echinochloa crus-galli); experiment: Test C preemergence
Excerpt: as §1

corn (Zea mays) [3] = experiment: Test C preemergence
Excerpt: as §1

[4] = test system: giant foxtail (Setaria faberii); experiment: Test C preemergence
Excerpt: as §1

[5] = test system: morningglory (Ipomoea coccinea); experiment: Test C preemergence
Excerpt: as §1

[6] = test system: pigweed (Amaranthus retroflexus); experiment: Test C preemergence
Excerpt: as §1

[7] = test system: yellow nutsedge (Cyperus esculentus); experiment: Test C preemergence
Excerpt: as §1

[8] = test system: Italian ryegrass (Lolium multiflorum); experiment: Test C postemergence
Excerpt: as §1

[9] = test system: barnyardgrass (Echinochloa crus-galli); experiment: Test C postemergence
Excerpt: as §1

[10] = test system: blackgrass (Alopecurus myosuroides); experiment: Test C postemergence
Excerpt: as §1

[11] = test system: chickweed (common chickweed, Stellaria media); experiment: Test C postemergence
Excerpt: as §1

corn (Zea mays) [12] = experiment: Test C postemergence
Excerpt: as §1

kochia (Kochia scoparia) = experiment: Test C postemergence
Excerpt: as §1

[13] = test system: lambsquarters (Chenopodium album); experiment: Test C postemergence
Excerpt: as §1

[14] = test system: large (Lg) crabgrass (Digitaria sanguinalis); experiment: Test C postemergence
Excerpt: as §1

[15] = test system: morningglory (Ipomoea coccinea); experiment: Test C postemergence
Excerpt: as §1

[16] = test system: pigweed (Amaranthus retroflexus); experiment: Test C postemergence
Excerpt: as §1

soybean (Glycine max) = experiment: Test C postemergence
Excerpt: as §1

[17] = test system: velvetleaf (Abutilon theophrasti); experiment: Test C postemergence
Excerpt: as §1

[18] = test system: waterhemp (common waterhemp, Amaranthus rudis); experiment: Test C postemergence
Excerpt: as §1

wild oat (Avena fatua) = experiment: Test C postemergence
Excerpt: as §1

[19] = test system: winter wheat (Triticum aestivum); experiment: Test C postemergence
Excerpt: as §1

[20] = test system: yellow nutsedge (Cyperus esculentus); experiment: Test C postemergence
Excerpt: as §1

SMILES: O=c1cccc(Oc2ncc(Cl)cn2)n1-c1ccc(Cl)cc1 [Compound 1, 1-(4-chlorophenyl)-6-[(5-chloro-2-pyrimidinyl)oxy]-2(1H)-pyridinone]
- Plant response rating, Ryegrass, Italian ([1]; 16 g ai/ha): 0
- Plant response rating, Ryegrass, Italian ([1]; 31 g ai/ha): 0
- Plant response rating, Ryegrass, Italian ([1]; 62 g ai/ha): 5
- Plant response rating, Ryegrass, Italian ([1]; 125 g ai/ha): 60
- Plant response rating, Barnyardgrass ([2]; 16 g ai/ha): 5
- Plant response rating, Barnyardgrass ([2]; 31 g ai/ha): 20
- Plant response rating, Barnyardgrass ([2]; 62 g ai/ha): 40
- Plant response rating, Barnyardgrass ([2]; 125 g ai/ha): 75
- Plant response rating, Corn (corn (Zea mays) [3]; 16 g ai/ha): 0
- Plant response rating, Corn (corn (Zea mays) [3]; 31 g ai/ha): 0
- Plant response rating, Corn (corn (Zea mays) [3]; 62 g ai/ha): 0
- Plant response rating, Corn (corn (Zea mays) [3]; 125 g ai/ha): 0
- Plant response rating, Foxtail, Giant ([4]; 16 g ai/ha): 10
- Plant response rating, Foxtail, Giant ([4]; 31 g ai/ha): 55
- Plant response rating, Foxtail, Giant ([4]; 62 g ai/ha): 90
- Plant response rating, Foxtail, Giant ([4]; 125 g ai/ha): 100
- Plant response rating, Morningglory ([5]; 16 g ai/ha): 0
- Plant response rating, Morningglory ([5]; 31 g ai/ha): 0
- Plant response rating, Morningglory ([5]; 62 g ai/ha): 0
- Plant response rating, Morningglory ([5]; 125 g ai/ha): 15
- Plant response rating, Pigweed ([6]; 16 g ai/ha): 25
- Plant response rating, Pigweed ([6]; 31 g ai/ha): 65
- Plant response rating, Pigweed ([6]; 62 g ai/ha): 75
- Plant response rating, Pigweed ([6]; 125 g ai/ha): 100
- Plant response rating, Nutsedge, Yellow ([7]; 16 g ai/ha): 0
- Plant response rating, Nutsedge, Yellow ([7]; 31 g ai/ha): 0
- Plant response rating, Nutsedge, Yellow ([7]; 62 g ai/ha): 0
- Plant response rating, Nutsedge, Yellow ([7]; 125 g ai/ha): 5
- Plant response rating, Ryegrass, Italian ([8]; 16 g ai/ha): 5
- Plant response rating, Ryegrass, Italian ([8]; 31 g ai/ha): 5
- Plant response rating, Ryegrass, Italian ([8]; 62 g ai/ha): 5
- Plant response rating, Ryegrass, Italian ([8]; 125 g ai/ha): 10
- Plant response rating, Barnyardgrass ([9]; 16 g ai/ha): 5
- Plant response rating, Barnyardgrass ([9]; 31 g ai/ha): 5
- Plant response rating, Barnyardgrass ([9]; 62 g ai/ha): 10
- Plant response rating, Barnyardgrass ([9]; 125 g ai/ha): 10
- Plant response rating, Blackgrass ([10]; 16 g ai/ha): 5
- Plant response rating, Blackgrass ([10]; 31 g ai/ha): 5
- Plant response rating, Blackgrass ([10]; 62 g ai/ha): 5
- Plant response rating, Blackgrass ([10]; 125 g ai/ha): 5
- Plant response rating, Chickweed ([11]; 16 g ai/ha): 10
- Plant response rating, Chickweed ([11]; 31 g ai/ha): 10
- Plant response rating, Chickweed ([11]; 62 g ai/ha): 50
- Plant response rating, Chickweed ([11]; 125 g ai/ha): 65
- Plant response rating, Corn (corn (Zea mays) [12]; 16 g ai/ha): 5
- Plant response rating, Corn (corn (Zea mays) [12]; 31 g ai/ha): 5
- Plant response rating, Corn (corn (Zea mays) [12]; 62 g ai/ha): 10
- Plant response rating, Corn (corn (Zea mays) [12]; 125 g ai/ha): 10
- Plant response rating, Kochia (kochia (Kochia scoparia); 16 g ai/ha): 90
- Plant response rating, Kochia (kochia (Kochia scoparia); 31 g ai/ha): 90
- Plant response rating, Kochia (kochia (Kochia scoparia); 62 g ai/ha): 95
- Plant response rating, Kochia (kochia (Kochia scoparia); 125 g ai/ha): 95
- Plant response rating, Lambsquarters ([13]; 16 g ai/ha): 15
- Plant response rating, Lambsquarters ([13]; 31 g ai/ha): 15
- Plant response rating, Lambsquarters ([13]; 62 g ai/ha): 45
- Plant response rating, Lambsquarters ([13]; 125 g ai/ha): 55
- Plant response rating, Crabgrass, Large ([14]; 16 g ai/ha): 10
- Plant response rating, Crabgrass, Large ([14]; 31 g ai/ha): 15
- Plant response rating, Crabgrass, Large ([14]; 62 g ai/ha): 15
- Plant response rating, Crabgrass, Large ([14]; 125 g ai/ha): 20
- Plant response rating, Morningglory ([15]; 16 g ai/ha): 10
- Plant response rating, Morningglory ([15]; 31 g ai/ha): 40
- Plant response rating, Morningglory ([15]; 62 g ai/ha): 40
- Plant response rating, Morningglory ([15]; 125 g ai/ha): 60
- Plant response rating, Pigweed ([16]; 16 g ai/ha): 35
- Plant response rating, Pigweed ([16]; 31 g ai/ha): 95
- Plant response rating, Pigweed ([16]; 62 g ai/ha): 60
- Plant response rating, Pigweed ([16]; 125 g ai/ha): 80
- Plant response rating, Soybean (soybean (Glycine max); 16 g ai/ha): 15
- Plant response rating, Soybean (soybean (Glycine max); 31 g ai/ha): 35
- Plant response rating, Soybean (soybean (Glycine max); 62 g ai/ha): 30
- Plant response rating, Soybean (soybean (Glycine max); 125 g ai/ha): 70
- Plant response rating, Velvetleaf ([17]; 16 g ai/ha): 10
- Plant response rating, Velvetleaf ([17]; 31 g ai/ha): 10
- Plant response rating, Velvetleaf ([17]; 62 g ai/ha): 20
- Plant response rating, Velvetleaf ([17]; 125 g ai/ha): 25
- Plant response rating, Waterhemp ([18]; 16 g ai/ha): 25
- Plant response rating, Waterhemp ([18]; 31 g ai/ha): 80
- Plant response rating, Waterhemp ([18]; 62 g ai/ha): 70
- Plant response rating, Waterhemp ([18]; 125 g ai/ha): 90
- Plant response rating, Oat, Wild (wild oat (Avena fatua); 16 g ai/ha): 5
- Plant response rating, Oat, Wild (wild oat (Avena fatua); 31 g ai/ha): 5
- Plant response rating, Oat, Wild (wild oat (Avena fatua); 62 g ai/ha): 5
- Plant response rating, Oat, Wild (wild oat (Avena fatua); 125 g ai/ha): 10
- Plant response rating, Wheat ([19]; 16 g ai/ha): 0
- Plant response rating, Wheat ([19]; 31 g ai/ha): 5
- Plant response rating, Wheat ([19]; 62 g ai/ha): 5
- Plant response rating, Wheat ([19]; 125 g ai/ha): 10
- Plant response rating, Nutsedge, Yellow ([20]; 16 g ai/ha): 5
- Plant response rating, Nutsedge, Yellow ([20]; 31 g ai/ha): 5
- Plant response rating, Nutsedge, Yellow ([20]; 62 g ai/ha): 5
- Plant response rating, Nutsedge, Yellow ([20]; 125 g ai/ha): 10
